# Source: patent US12535483B2, “Norovirus-binding peptide” (Kao Corporation, priority 2019, dated 2026)
# Assays:
# GII.17 VLP = experiment: KD value by bio-layer interferometry (BLI, BLItz), peptide on SA chip, GII.17 VLP; assay type: binding, norovirus GII.17 Saitama strain; settings: for Kd: GII.17 VLP 1 and 0.1 mg/mL, 100 μM peptide bound to SA chip, KD calculated from Ka and Kd values; for ka / kd: GII.17 VLP; for ka: association 90 sec; for kd: dissociation in PBS 60 sec
# Method: (§1) <Calculation of KD Value by Bio-Layer Interferometry: BLI Method>
# (§2) The apparatus used was BLItz™ (manufactured by ForteBio). The tip of SA chip (manufactured by ForteBio) was kept in contact with purified water for 1 minute for hydration and was then kept in contact with a 1% BSA aqueous solution for 1 hour for blocking. The SA chip subjected to blocking treatment was set to the measuring unit of the BLItz™ main body, and measurement was performed according to the program shown in Table 14. The peptides of SEQ ID NOs: 43, 48, 52, 59, 131, 143, 150, 154, 155, 156, 163, and 172 were used, and the concentration was adjusted to 100 µM. The concentrations of each of the GII.3 and GII.17 VLPs were adjusted to 1 and 0.1 mg/mL. The measurement data were analyzed using the attached software, and the KD value was calculated based on the Ka and Kd values.
# GII.3 VLP = experiment: KD value by bio-layer interferometry (BLI, BLItz), peptide on SA chip, GII.3 VLP; assay type: binding, norovirus GII.3 TCH strain; settings: for Kd: GII.3 VLP 1 and 0.1 mg/mL, 100 μM peptide bound to SA chip, KD calculated from Ka and Kd values; for ka / kd: GII.3 VLP; for ka: association 90 sec; for kd: dissociation in PBS 60 sec
# Method: as §1, §2
Sequence,Kd (GII.17 VLP) [µM],ka (GII.17 VLP) [M⁻¹ s⁻¹],kd (GII.17 VLP) [s⁻¹],Kd (GII.3 VLP) [µM],ka (GII.3 VLP) [M⁻¹ s⁻¹],kd (GII.3 VLP) [s⁻¹]
ECMGRRWMSS [No. 154],0.628,49500,0.00205,0.123,141000,0.0173
GCVGDLYCSA [No. 172],,,,69.3,189,0.0131
ICSSWFPSVH [No. 48],0.0766,1.28e+06,0.0978,0.0303,810000,0.0246
KYRATICHTV [No. 52],0.0179,1.29e+06,0.0232,0.0138,747000,0.0103
NFRVPIRFTH [No. 131],,,,157,1660,0.262
SVMVTRSLFG [No. 163],,110000,0.0185,0.00766,1.03e+06,0.00786
VCVDNDISMS [No. 150],2510,102,0.255,0.437,27000,0.0118
VELFLLTSSC [No. 155],,,,803,115,0.0926
VVGFGRRSLF [No. 156],234,398,0.0931,1.06,67300,0.0713
YRRSKSEIFV [No. 59],0.383,134000,0.0511,0.00887,805000,0.00714
YVIRNSDRHN [No. 43],234,822,0.192,0.0672,1.18e+06,0.0793
YVVASKSNRL [No. 143],,,,0.0135,325000,0.0044
